Source: patent US8378104B2 (OSI Pharmaceuticals, LLC, priority 2010, dated 2013)
Structures can show the parent of a compound that is named as a salt.

What was measured:
TAK1-TAB1 fusion protein = biological target: T1, TAK1-TAB1 fusion protein (Homo sapiens, UniProt O43318); test: TAK1 biochemical assay (AlphaScreen, GST-MAP2K7 substrate); details: TAK1-TAB1 fusion protein, GST-MAP2K7 substrate; read-out: mean TAK1 IC50 (Col. A)
T1 construct: purchased Carna
T1 sequence (O43318 with tags, fused parts or gaps limits assumed): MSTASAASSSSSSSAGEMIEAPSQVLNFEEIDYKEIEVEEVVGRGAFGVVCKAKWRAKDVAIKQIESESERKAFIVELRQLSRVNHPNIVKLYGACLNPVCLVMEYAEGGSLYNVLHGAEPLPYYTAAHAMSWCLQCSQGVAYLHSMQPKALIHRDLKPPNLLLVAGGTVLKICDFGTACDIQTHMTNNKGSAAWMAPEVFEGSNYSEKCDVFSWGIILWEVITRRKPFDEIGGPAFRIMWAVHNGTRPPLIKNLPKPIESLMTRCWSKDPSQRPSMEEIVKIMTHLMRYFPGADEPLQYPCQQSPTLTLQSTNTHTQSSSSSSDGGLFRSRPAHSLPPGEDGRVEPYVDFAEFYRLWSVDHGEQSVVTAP

pJNK in HCT-116 cells = test: Phospho-JNK (Thr183/Tyr185) Meso Scale ELISA assay, TNFα-stimulated HCT-116 cells; type: cell-based; details: Homo sapiens, read-out: mean HCT-116 pJNK ELISA IC50 (Col. B)
Experimental: Detailed below are ELISA assays for pJNK and p38, and a TAK1 biochemical assay. […] In Table 1, Col.
Phospho-JNK (Thr183/Tyr185) Meso Scale ELISA Assay
• 1. Plate HCT-116 cells at 25,000 per well in 100 uL in 96 well clear dishes in normal growth medium. Day 2: • 1. Aspirate medium and replace with 90 μl reduced serum growth medium (1% FCS), incubate for 2 hours at 37° C. • 2. Make drugs at 10× in reduced serum medium and add 10 uL per well. • 3. Incubate at 37° C. for 4 hrs. • 4. Bring capture plates to room temperature. • 5. Block with 150 μl Blocking Solution (provided with kit) (600 mg Blocker A into 20 mL 1× Wash Buffer per plate) at room temperature with shaking. • 6. Wash plates 4× with 200 μl 1× wash buffer (10× provided with kit) before transferring lysates. • 7. Dilute TNFα to […] in reduced serum medium (this makes a 10× working stock). • 8. Add 10 μl TNFα to all wells except negative control wells, final concentration is 10 ng/mL. • 9. Incubate at 37° C. for 10 minutes. • 10. Remove medium by flicking into sink • 11. Wash cells with 100 uL ice cold PBS. • 12. Remove PBS by flicking into sink and patting on paper towels. • 13. Lyse cells in 50 μl ice cold 1× Complete Lysis Buffer plus Phosphatase and Protease inhibitors (all provided with kit) (10 mL Tris Lysis Buffer+200 μl Protease inhibitor solution+100 μl Phosphatase inhibitor I+100 μl Phosphatase inhibitor II). • 14. Incubate with shaking at 4° C. for 30 minutes. • 15. Transfer 45 μl to capture plate, cover with adhesive cover, and incubate at 4° C. over night with shaking. • Day 3: • 1. Wash plates 4× with 200 μl 1× wash buffer (10× provided with kit). • 2. […] Incubate at room temperature with shaking for 1 hour. • 4. Wash 4× with 200 μl 1× Wash Buffer. • 5. […] Read on Sector Imager. Phospho-p38 Meso Scale ELISA Assay Day 1: • 1. Plate HCT-116 cells at 25,000 per well in 100 uL in 96 well clear dishes in normal growth medium. zday 2: • 1. Aspirate medium and replace with 90 μl reduced serum growth medium (1% FCS), incubate for 2 hours at 37° C. • 2. Make drugs at 10× in reduced serum medium and add 10 uL per well. • 3. Incubate at 37° C. for 4 hrs. • 4. Bring capture plates to room temperature. • 5. Block with 150 μl Blocking Solution (provided with kit) (600 mg Blocker A into 20 mL 1× Wash Buffer per plate) at room temperature with shaking. • 6. Wash plates 4× with 200 μl 1× wash buffer (10× provided with kit) before transferring lysates. • 7. Dilute TNFα to […] in reduced serum medium (this makes a 10× working stock). • 8. Add 10 μl TNFα to all wells except negative control wells, final concentration is 10 ng/mL. • 9. Incubate at 37° C. for 10 minutes. • 10. Remove medium by flicking into sink • 11. Wash cells with 100 uL ice cold PBS. • 12. Remove PBS by flicking into sink and patting on paper towels. • 13. Lyse cells in 50 μl ice cold 1× Complete Lysis Buffer plus phosphatase and protease inhibitors (all provided with kit) (10 mL Tris Lysis Buffer+200 μl Protease inhibitor solution+100 μl Phosphatase inhibitor I+100 μl Phosphatase inhibitor II). • 14. Incubate with shaking at 4° C. for 30 minutes. • 15. Dilute lysates before transferring to capture plate with 100 μl Complete p38 Lysate • Dilution Buffer (provided with kit) (10 mL of Diluent 20±200 μl Protease inhibitor solution+100 μl Phosphatase inhibitor I+100 μl Phosphatase inhibitor II). • 16. Transfer 50 μl of diluted lysates to capture plate, cover with adhesive cover, and incubate at 4° C. over night with shaking. Day 3: • 1. Wash plates 4× with 200 μl 1× wash buffer (10× provided with kit). • 2. […] Incubate at room temperature with shaking for 1 hour. • 4. Wash 4× with 200 μl 1× Wash Buffer. • 5. […] Read on Sector Imager. TAK1 Biochemical Assay

| SMILES | IC50 (TAK1-TAB1 fusion protein) | IC50 (pJNK in HCT-116 cells) |
| --- | --- | --- |
| CC(=O)N1CCC(n2cc(-c3cnc(N)c4oc(-c5ccc(F)c6cnsc56)cc34)cn2)CC1 [Example 223, 1-(4-{4-[7-amino-2-(4-fluoro-1,2-benzothiazol-7-yl)furo[2,3-c]pyridin-4-yl]-1H-pyrazol-1-yl}piperidin-1-yl)ethanone diformate salt] | 100 to 1000 nM | 100 to 1000 nM |
| CNc1ncc(-c2cnn(C3CCN(C(C)=O)CC3)c2)c2cc(-c3cccc4nnsc34)oc12 [Example 278, 1-(4-{4-[2-(1,2,3-benzothiadiazol-7-yl)-7-(methylamino)furo[2,3-c]pyridin-4-yl]-1H-pyrazol-1-yl}piperidin-1-yl)ethanone] | < 100 nM | < 100 nM |
| Nc1ncc(-c2cnn([C@@H]3C[C@H]4CC[C@@H](C3)N4C=O)c2)c2cc(-c3csc4cnccc34)oc12 [Example 324, (3-exo)-3-{4-[7-amino-2-(thieno[2,3-c]pyridin-3-yl)furo[2,3-c]pyridin-4-yl]-1H-pyrazol-1-yl}-8-azabicyclo[3.2.1]octane-8-carbaldehyde] | < 100 nM | < 100 nM |
| CC(=O)N1CCC(n2cc(-c3cnc(N)c4oc(-c5c(F)ccc6cnsc56)cc34)cn2)CC1 [Example 239, 1-(4-{4-[7-amino-2-(6-fluoro-1,2-benzothiazol-7-yl)furo[2,3-c]pyridin-4-yl]-1H-pyrazol-1-yl}piperidin-1-yl)ethanone diformate salt] | 100 to 1000 nM | 100 to 1000 nM |
| CC(=O)N1CCC(n2cc(-c3cnc(N)c4oc(-c5c(C#N)sc6cnccc56)cc34)cn2)CC1 [Example 264, 3-{4-[1-(1-acetylpiperidin-4-yl)-1H-pyrazol-4-yl]-7-aminofuro[2,3-c]pyridin-2-yl}thieno[2,3-c]pyridine-2-carbonitrile Trifluoroacetate] | 100 to 1000 nM | < 100 nM |
| Nc1ncc(-c2cnn([C@@H]3CCC[C@@H](O)C3)c2)c2cc(-c3csc4cnccc34)oc12 (relative stereo) [Example 309, trans-3-[4-(7-amino-2-thieno[2,3-c]pyridin-3-yl-furo[2,3-c]pyridin-4-yl)-pyrazol-1-yl]-cyclohexanol] | < 100 nM | < 100 nM |
| Nc1ncc(-c2cnn([C@H]3CC[C@H](O)CC3)c2)c2c(Cl)c(-c3csc4cnccc34)oc12 [Example 287, trans-4-{4-[7-amino-3-chloro-2-(thieno[2,3-c]pyridin-3-yl)furo[2,3-c]pyridin-4-yl]-1H-pyrazol-1-yl}cyclohexanol] | 100 to 1000 nM | < 100 nM |
| CN1[C@@H]2CC[C@H]1C[C@H](n1cc(-c3cnc(N)c4oc(-c5csc6cnccc56)cc34)cn1)C2 [Example 328, 4-{1-[(3-exo)-8-methyl-8-azabicyclo[3.2.1]oct-3-yl]-1H-pyrazol-4-yl}-2-(thieno[2,3-c]pyridin-3-yl)furo[2,3-c]pyridin-7-amine] | < 100 nM | 100 to 1000 nM |
| CC(C)N1[C@@H]2CC[C@H]1C[C@H](n1cc(-c3cnc(N)c4oc(-c5csc6cnccc56)cc34)cn1)C2 [Example 329, 4-{1-[(3-exo)-8-(propan-2-yl)-8-azabicyclo[3.2.1]oct-3-yl]-1H-pyrazol-4-yl}-2-(thieno[2,3-c]pyridin-3-yl)furo[2,3-c]pyridin-7-amine] | < 100 nM | 100 to 1000 nM |
| CC(C)(C)OC(=O)N1[C@@H]2CC[C@H]1C[C@H](n1cc(-c3cnc(N)c4oc(-c5cccc6cnsc56)cc34)cn1)C2 [Example 301, tert-butyl (3-exo)-3-{4-[7-amino-2-(1,2-benzisothiazol-7-yl)furo[2,3-c]pyridin-4-yl]-1H-pyrazol-1-yl}-8-azabicyclo[3.2.1]octane-8-carboxylate] | 100 to 1000 nM | 100 to 1000 nM |
| CNc1ncc(-c2cnn([C@H]3CC[C@H](O)CC3)c2)c2cc(-c3cccc4nnsc34)oc12 [Example 284, trans-4-{4-{2-[2-(1,2,3-benzothiadiazol-7-yl)-7-(methylamino)furo[2,3-c]pyridin-4-yl]-1H-pyrazol-1-yl}cyclohexanol formate salt] | < 100 nM | < 100 nM |

More lines, now with the values ahead:

| IC50 (TAK1-TAB1 fusion protein) | IC50 (pJNK in HCT-116 cells) | SMILES |
| --- | --- | --- |
| < 100 nM | < 100 nM | CCNc1nc2cccc(-c3cc4c(-c5cnn([C@H]6CC[C@H](O)CC6)c5)cnc(N)c4o3)c2s1 [Example 355, trans-4-(4-{7-amino-2-[2-(ethylamino)-1,3-benzothiazol-7-yl]furo[2,3-c]pyridin-4-yl}-1H-pyrazol-1-yl)cyclohexanol Trifluoroacetate (Salt)] |
| 100 to 1000 nM | 100 to 1000 nM | Nc1ncc(-c2cnn([C@H]3CC[C@H](O)CC3)c2)c2cc(-c3csc4cnc(Cl)cc34)oc12 [Example 247, trans-4-{4-[7-amino-2-(5-chlorothieno[2,3-c]pyridin-3-yl)furo[2,3-c]pyridin-4-yl]-1H-pyrazol-1-yl}cyclohexanol bis(trifluoroacetate)] |
| < 100 nM | < 100 nM | CC(=O)N1CCC(n2cc(-c3cnc(N)c4oc(-c5cccc6ncsc56)cc34)cn2)CC1 [Example 225, 1-(4-{4-[7-amino-2-(1,3-benzothiazol-7-yl)furo[2,3-c]pyridin-4-yl]-1H-pyrazol-1-yl}piperidin-1-yl)ethanone diformate salt] |
| 100 to 1000 nM | 1000 to 10000 nM | CC(C)(O)C#Cc1sc2cnccc2c1-c1cc2c(-c3cnn([C@H]4CC[C@H](O)CC4)c3)cnc(N)c2o1 [Example 271, trans-4-(4-{7-amino-2-[2-(3-hydroxy-3-methylbut-1-yn-1-yl)thieno[2,3-c]pyridin-3-yl]furo[2,3-c]pyridin-4-yl}-1H-pyrazol-1-yl)cyclohexanol trifluoroacetate] |
| < 100 nM | < 100 nM | Nc1ncc(-c2cnn([C@H]3CC[C@H](O)CC3)c2)c2cc(-c3cccc4cnncc34)oc12 [Example 366, trans-4-{4-[7-amino-2-(phthalazin-5-yl)furo[2,3-c]pyridin-4-yl]-1H-pyrazol-1-yl}cyclohexanol] |
| < 100 nM | < 100 nM | Nc1ncc(-c2cnn([C@H]3CC[C@H](O)CC3)c2)c2cc(-c3cccc4sncc34)oc12 [Example 242, trans-4-{4-[7-amino-2-(1,2-benzothiazol-4-yl)furo[2,3-c]pyridin-4-yl]-1H-pyrazol-1-yl}cyclohexanol Diformate Salt] |
| < 100 nM | < 100 nM | Cc1c(-c2cccc3nnsc23)oc2c(N)ncc(-c3cnn([C@H]4CC[C@H](O)CC4)c3)c12 [Example 362, trans-4-{4-[7-amino-2-(1,2,3-benzothiadiazol-7-yl)-3-methylfuro[2,3-c]pyridin-4-yl]-1H-pyrazol-1-yl}cyclohexanol] |
